Source: patent US20150315211A1, “SMALL MOLECULES FOR THE MODULATION OF MCL-1 AND METHODS OF MODULATING CELL DEATH, CELL DIVISION, CELL DIFFERENTIATION AND METHODS OF TREATING DISORDERS” (priority 2010, published 2015)
Like-named read-outs stand apart in the source and are kept apart here.

Key:
MCL-1ΔNΔC [1] = biological target: T1, MCL-1ΔNΔC (Homo sapiens, UniProt Q07820); settings: pre-incubation, re-concentration, FP with FITC-BID BH3
Procedure: A small sample was taken as a pre-dilution control. Compound-treated protein and unmodified protein were then diluted to a volume of 20 mL, and subsequently re-concentrated to 500 mL using 10K centrifugal filter units (Amicon). FP binding analysis was performed as described above by adding serial dilutions of compound-modified MCL-1 and unmodified MCL-1, both before and after dilution, followed by FITC-BID BH3 (15 nM) to a 96-well black flat bottom plate (Costar). FP measurements and analyses are then performed as described above.
Briefly, MCL-1ΔNΔC was pre-incubated with the small molecule inhibitors prior to dilution with buffer. The solution was concentrated to its original volume and fluorescence polarization was performed. Compounds that bind covalently will remain bound to the protein, whereas compounds that bind reversibly will be exchanged upon dilution.

BCL-XLΔC = BCL-XLΔC (Homo sapiens, UniProt Q07817); test: High-throughput competitive FP binding screen, FITC-BAD BH3/BCL-XLΔC interaction
BCL-XLΔC, sequence (Q07817 1-212 limits assumed, stated change not applied): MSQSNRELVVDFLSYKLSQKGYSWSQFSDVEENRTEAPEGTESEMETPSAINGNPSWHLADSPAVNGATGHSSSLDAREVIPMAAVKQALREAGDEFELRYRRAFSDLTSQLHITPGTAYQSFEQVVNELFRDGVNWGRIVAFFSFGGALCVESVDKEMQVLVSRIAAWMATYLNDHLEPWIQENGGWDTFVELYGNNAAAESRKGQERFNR

MCL-1ΔNΔC [2] = biological target: T1, MCL-1ΔNΔC; test: High-throughput competitive FP binding screen, FITC-MCL-1 SAHB/MCL-1ΔNΔC interaction; design: the C-terminal alpha-helix was deleted from each of these constructs; GST (N, cleaved yes); made in house
MCL-1ΔNΔC [3] = test: as above
[4] = FITC-BAD BH3/BCL-XLΔC interaction pair, competitive FP screen
[5] = FITC-MCL-1 SAHB/MCL-1ΔNΔC interaction pair, competitive FP screen
[6] = selectivity for MCL-1ΔNΔC over BCL-XLΔC targeting (BCL-XL % Bound minus MCL-1 % Bound)

T1 sequence (Q07820 172-320 limits assumed, stated change not applied): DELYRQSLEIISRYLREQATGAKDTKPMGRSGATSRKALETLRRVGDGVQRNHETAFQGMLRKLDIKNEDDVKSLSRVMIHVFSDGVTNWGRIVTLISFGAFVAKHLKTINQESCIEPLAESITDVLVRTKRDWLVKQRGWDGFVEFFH

Row | Structure (SMILES) | mechanism of binding to MCL-1ΔNΔC upon dilution (reversible vs covalent) (MCL-1ΔNΔC [1]) | BCL-XL % Bound (BCL-XLΔC) [%] | MCL-1% Bound (MCL-1ΔNΔC [2]) [%] | Spec Values (MCL-1ΔNΔC [3]) | BCL-XL % Bound (BCL-XLΔC; [4]) [%] | MCL-1% Bound (MCL-1ΔNΔC [2]; [5]) [%] | Spec Values (MCL-1ΔNΔC [3]; [6])
1 | Cc1cc2c(C(C)C)c(O)c(O)c(C=O)c2c(O)c1-c1c(C)cc2c(C(C)C)c(O)c(O)c(C=O)c2c1O [Gossypol] | bound reversibly |  |  |  |  |  | 
2 | Cc1cc2c(C(C)C)c(O)c(O)c(C=O)c2c(O)c1-c1c(C)cc2c(C(C)C)c(O)c(O)c(C=O)c2c1O [drawing 158] |  | 101 | 3.955 | 97.07 |  |  | 
3 | O=c1cc(-c2ccccc2)oc2cc(O)c(O)c(O)c12 [drawing 161] |  |  |  |  | 104.2 | 10.32 | 93.84
4 | O=c1c(O)c(-c2ccc(O)c(O)c2)oc2cc(O)cc(O)c12 [drawing 167] |  |  |  |  | 105.3 | 16.69 | 88.65
5 | O=c1c(O)c(-c2ccc(O)c(O)c2)oc2cc(O)cc(O)c12 [drawing 172] |  |  |  |  | 92.49 | 9.24 | 83.25
6 | O=C(OCC1O[C@H](OC(=O)c2cc(O)c(O)c(OC(=O)c3cc(O)c(O)c(O)c3)c2)[C@H](OC(=O)c2cc(O)c(O)c(OC(=O)c3cc(O)c(O)c(O)c3)c2)[C@@H](OC(=O)c2cc(O)c(O)c(OC(=O)c3cc(O)c(O)c(O)c3)c2)[C@@H]1OC(=O)c1cc(O)c(O)c(OC(=O)c2cc(O)c(O)c(O)c2)c1)c1cc(O)c(O)c(OC(=O)c2cc(O)c(O)c(O)c2)c1 (stereo partly shown) [drawing 178] |  |  |  |  | 98.26 | 15.94 | 82.32
7 | CC1=C(C#N)C(=O)N=C(O)/C1=C\c1ccc(-c2ccc(S(N)(=O)=O)cc2)o1 [drawing 191] |  |  |  |  | 98.2 | 21.8 | 76.4
8 | CC1=C(C#N)C(=O)N=C(O)/C1=C\c1ccc(-c2ccc(S(N)(=O)=O)cc2)o1 [drawing 192] |  |  |  |  | 93.7 | 17.4 | 76.4
9 | COc1ccc(N(C)C(=S)Nc2ccc3nc(-c4ccco4)c(-c4ccco4)nc3c2)cc1 [drawing 205] |  |  |  |  | 81.17 | 8.322 | 72.84
10 | O=c1c(O)c(-c2cc(O)c(O)c(O)c2)oc2cc(O)cc(O)c12 [drawing 222] |  |  |  |  | 102.4 | 34.13 | 68.23
11 | N#C/C(=C\c1ccc(O)c(O)c1)C(N)=S [drawing 231] |  | 100.8 | 34.55 | 66.21 |  |  | 
12 | O=C1NC(=O)N(CCC2=CCCCC2)C(=O)/C1=C/c1cnc(-c2ccccc2)nc1 [drawing 249] |  | 106.9 | 43.51 | 63.4 |  |  | 
13 | CC1=NOC(=O)/C1=C/c1ccc(-c2ccc(Cl)cc2)o1 [drawing 255] |  | 101.5 | 38.47 | 62.98 |  |  | 
14 | Oc1c(Cl)cc(Cl)c(Cl)c1Cc1c(O)c(Cl)cc(Cl)c1Cl [drawing 274] |  | 100.4 | 41.01 | 59.35 |  |  | 
15 | COc1ccc2c(c1)CC[C@@H]1C2CC[C@@]2(C)C1CC[C@@H]2NCCCCCCN1C(=O)CCC1=O (stereo partly shown) [drawing 365] |  |  |  |  | 106.3 | 56.6 | 49.67
